Source: patent US7989445B2, “Thienopyrimidone compound” (Takeda Pharmaceutical Company Limited, priority 2005, dated 2011)
Counter-ions that a name gives are not always drawn.

Legend:
[1] = target: T1, SLC-1 expression CHO cell membrane fraction (MCH receptor) (Homo sapiens, UniProt Q99705); experiment: Antagonistic activity of test compound using GTPγS binding assay; assay type: biochemical, human/rat; details: [35S]-GTPγS binding stimulated by MCH, 25° C., 1 hr, read-out: inhibitory activity (IC50: nM)
T1 construct: expressed in transfected cells; host or cells: CHO cells (human SLC-1 clone 57 / rat SLC-1 clone 44), membrane fraction
Experimental: Determination of Antagonistic Activity of Test Compound using GTPγS Binding Assay
Using human SLC-1 expression CHO cell clone 57 and rat SLC-1 expression CHO cell clone 44 described in WO01/82925, SLC-1 expression CHO cell membrane fractions were prepared by the following method. In phosphate buffered saline (pH 7.4) supplemented with 5 mM EDTA (ethylenediaminetetraacetic acid) were suspended human and rat SLC-1 expression CHO cells (1×10^8) and centrifuged. Homogenate buffer (10 ml, 10 mM NaHCO3, 5 mM EDTA, pH 7.5) was added to the pellets of the cells and, using Polytron Homogenizer, the mixture was homogenated. The supernatant obtained after centrifugation at 400×g for 15 min was further centrifuged at 100,000×g for 1 hr to give precipitate of the membrane fraction. The precipitate was suspended in 2 ml of an assay buffer [50 mM Tris-HCl (pH 7.5), 1 mM EDTA, 0.1% BSA (bovine serum albumin), 10 mM MgCl2, 100 mM NaCl, 1 μM GDP (guanosine 5′-diphosphate), 0.25 mM PMSF (phenylmethylsulfonyl fluoride), […] pepstatin, […] leupeptin, […] phosphoramidon] and centrifuged at 100,000×g for 1 hr. The membrane fraction recovered as precipitate was suspended again in 20 ml of an assay buffer, and after dispensing, preserved at −80° C. and used upon thawing each time when in use.
The antagonistic activity of the test compound was determined as follows. The SLC-1 expression CHO cell membrane fraction (171 μl) diluted with an assay buffer was dispensed to a polypropylene 96 well plate and 3×10^−10 M MCH (2 μl) diluted with DMSO solution, test compound solution (2 μl) diluted to various concentrations and [^35S]-Guanosine 5′-(γ-thio)triphosphate ([…] Daiichi Pure Chemicals Co., Ltd.) were respectively added (cell membrane final concentration: 20 μg/ml, [^35S]-Guanosine 5′-(γ-thio)triphosphate final concentration: 0.33 nM). The reaction mixture was reacted at 25° C. for 1 hr with stirring, suction filtered with a glass filter (GF-C) and washed 3 times with a wash solution (300 μl, 50 mM Tris-HCl buffer, pH 7.5). Liquid scintillator ([…]) was added to the glass filter and the residual radioactivity was determined by a liquid scintillation counter. Binding inhibition (%)=(radioactivity upon addition of test compound and MCH−radioactivity upon addition of DMSO solution)/(radioactivity upon addition of MCH−radioactivity upon addition of DMSO solution)×100
From the binding inhibition (%), IC50 of the test compound was calculated.

T1 sequence (Q99705 whole entry): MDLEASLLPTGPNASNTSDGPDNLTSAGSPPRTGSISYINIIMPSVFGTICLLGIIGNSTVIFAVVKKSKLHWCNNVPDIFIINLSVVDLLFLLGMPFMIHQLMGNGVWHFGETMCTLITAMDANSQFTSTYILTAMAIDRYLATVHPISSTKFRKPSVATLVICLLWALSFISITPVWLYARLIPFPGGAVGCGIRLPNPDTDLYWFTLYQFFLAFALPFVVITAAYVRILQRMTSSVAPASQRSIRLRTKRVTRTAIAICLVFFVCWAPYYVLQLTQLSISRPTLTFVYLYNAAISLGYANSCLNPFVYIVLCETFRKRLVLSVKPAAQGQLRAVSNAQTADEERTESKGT

| IC50 [1] [nM] | melting point [°C] | Compound |
| --- | --- | --- |
| 1.2 |  | O=c1c2sc(-c3ccc(Cl)cc3)cc2ncn1CCc1ccc(CN2CC[C@H](F)C2)cc1 [Example 18, 6-(4-chlorophenyl)-3-[2-(4-{[(3S)-3-fluoropyrrolidin-1-yl]methyl}phenyl)ethyl]thieno[3,2-d]pyrimidin-4(3H)-one] |
| 4.8 | 176 to 178 | CC(=O)N(C)Cc1ccc(CCn2cnc3cc(-c4ccc(Cl)cc4)sc3c2=O)cc1 [Example 6, N-(4-{2-[6-(4-chlorophenyl)-4-oxothieno[3,2-d]pyrimidin-3(4H) -yl]ethyl}benzyl)-N-methylacetamide] |
| 10 |  | CC(=O)N(C)N(C)c1ccc(CCn2cnc3cc(-c4ccc(Cl)cc4)sc3c2=O)cc1 [Example 22, N′-[4-[2-[6-(4-chlorophenyl)-4-oxothieno[3,2-d]pyrimidin-3(4H)-yl]ethyl]phenyl]-N,N′-dimethylacetohydrazide] |
| 3.2 | 218 to 221 | O=C1CCCN1Cc1ccc(CCn2cnc3cc(-c4ccc(Cl)cc4)sc3c2=O)cc1 [Example 11, 6-(4-chlorophenyl)-3-(2-{4-[(2-oxopyrrolidin-1-yl)methyl]phenyl}ethyl)thieno[3,2-d]pyrimidin-4(3H)-one] |
| 0.4 |  | CNCc1ccc(CCn2cnc3cc(-c4ccc(Cl)cc4)sc3c2=O)cc1 [Example 4, 6-(4-chlorophenyl)-3-(2-{4-[(methylamino)methyl]phenyl}ethyl)thieno[3,2-d]pyrimidin-4(3H)-one dihydrochloride] |
| 4.7 | 156 to 158 | CN(C)C(=S)N(C)Cc1ccc(CCn2cnc3cc(-c4ccc(Cl)cc4)sc3c2=O)cc1 [Example 9, N-(4-{2-[6-(4-chlorophenyl)-4-oxothieno[3,2-d]pyrimidin-3(4H) -yl]ethyl}benzyl)-N,N′,N′-trimethylthiourea] |
| 0.4 | 175 to 179 | CC(c1ccc(CCn2cnc3cc(-c4ccc(Cl)cc4)sc3c2=O)cc1)N1CCCCC1 (stereo not drawn) [Example 2, 6-(4-chlorophenyl)-3-{2-[4-(1-piperidin-1-ylethyl)phenyl]ethyl}thieno[3,2-d]pyrimidin-4(3H)-one] |
| 5 | 207 to 212 | CN(CC(N)=O)Cc1ccc(CCn2cnc3cc(-c4ccc(Cl)cc4)sc3c2=O)cc1 [Example 32, N^2-(4-{2-[6-(4-chlorophenyl)-4-oxothieno[3,2-d]pyrimidin-3(4H) -yl]ethyl}benzyl)-N^2-methylglycinamide] |
| 0.3 | 163 to 166 | O=c1c2sc(-c3ccc(Cl)cc3)cc2ncn1CCc1ccc(CN2CCCC2)cc1 [Example 1, 6-(4-chlorophenyl)-3-{2-[4-(pyrrolidin-1-ylmethyl)phenyl]ethyl}thieno[3,2-d]pyrimidin-4(3H)-one] |
